From patent US10167258B2, “Inhibitors of mitochondrial pyruvate dehydrogenase kinase isoforms 1-4 and uses thereof” (The Board of Regents of the University of Texas System, priority 2013, dated 2019)
Read-outs that look alike come from different tables or passages of the source.

Legend:
[1] = Pharmacokinetic studies in mice after IP dosing; assay type: in vivo; conditions: 70 mg/kg IP, male C57BL/6J mice, plasma
Procedure: Twenty-one male C57BL/6J mice were dosed IP with 70 mg/kg PS-10, 0.2 ml/mouse formulated as 10% DMSO/20% water/70% of 25% (2-hydroxypropyl)-β-cyclodextrin for determination of PS-10 PK. Twenty-one female CD-1 mice were dosed IP with 20 mg/kg PS-8, 0.2 ml/mouse formulated as 5% ethanol and 95% of 0.1 M sodium bicarbonate pH 9.0 for determination of PS-8 PK. Animal (n=3) were sacrificed and whole blood was harvested for each time point. Plasma was processed from whole blood by centrifugation of the ACD treated blood for 10′ at 10,000 rpm in a standard centrifuge. The analytical processing of blood samples and pharmacokinetics studies using LC/MS/MS were as described previously with LC/MS/MS methods optimized for detection of PS-10 and PS-8 (33).

[2] = Half-life in vitro in hepatic S9 fractions; assay type: in vitro ADME; conditions: data not shown
[3] = Food intake, body weight and fat mass of DIO mice; assay type: in vivo; conditions: 70 mg/kg/day
Procedure: (§1) Six- to eight-week old C57BL/6J male mice were obtained from the local campus breeding colony at UT Southwestern Medical Center (Dallas, Tex.) and randomized into two groups: vehicle- and PS10-treated. Prior to the treatment, mice were fed with a 60% high-fat diet, which contained 32% saturated and 68% unsaturated fat (catalog number: D12492, Research Diet Inc. New Brunswick, N.J.), for eight to ten weeks to produce DIO animals. PS-10 was dissolved in 100% DMSO and then diluted to make a 10% DMSO aqueous solution containing 17.5% (w/v) (2-hydroxypropyl)-β-cyclodextrin for delivery. Animals were dosed at mid-day by intraperitoneal (IP) injections at 70 mg/kg using 1-ml syringe and 30-gauge needle. The length of the treatment is indicted in each experiment. At 10 h after the last injection, animals were euthanized using carbon dioxide asphyxiation followed by cervical dislocation and dissection. Blood was harvested by cardiac puncture and stored on ice. Acidified citrate dextrose (ACD) was used as an anticoagulant. Immediately after blood collection, heart, liver, kidneys and both hind-leg quadriceps muscles were removed and snap frozen in liquid nitrogen. Average ischemia time before organ harvest was about 2 to 3 min. Blood was centrifuged in an Eppendorf 5415R refrigerated microcentrifuge at 9,300×g for 5 min to isolate plasma, which was subsequently stored at −80° C.

[4] = system: DIO mice; test: Blood biochemistry of DIO mice (lactate, cholesterol, triglycerides); assay type: in vivo; conditions: 70 mg/kg/day
Procedure: as §1
Glucose levels were determined with Sigma Diagnostics Glucose (Sigma Aldrich, St. Louis, Mo.). The levels of lactate, cholesterol, and triglyceride were measured by Vitros 250 blood chemistry analyzer (Johnson & Johnson Inc.) in the Metabolic Phenotyping Core in UT Southwestern Medical Center.

[5] = molecular target: PDK4 (Homo sapiens, UniProt Q16654); test: Assay for inhibition of PDK activity, PDK4; assay type: biochemical; design: made in house
Procedure: (§2) Recombinant human PDK2 was expressed and purified as a N terminal His6-tagged SUMO fusion protein with a tobacco-etch-virus protease (TEV) cleavage site in front of the N-terminal PDK2 sequence (26), and was used directly for the activity assay and binding affinity analyses. […] The purified protein was concentrated to 35-40 mg/ml and stored at −80° C. in small aliquots. Recombinant human PDK1, PDK3 and PDK4 were expressed and purified as described previously (26).
(§3) The remaining steps were described previously (26). IC50 values were obtained by the curve fitting of inhibition isotherms using Prism 6 (GraphPad software, Inc.).

[6] = molecular target: PDK2 (Homo sapiens, UniProt Q15119); test: Assay for inhibition of PDK activity, PDK2; assay type: biochemical; design: made in house
Procedure: as §2, §3

[7] = system: HeLa cells; conditions: read-out: IC50 for the growth inhibition of HeLa cells
[8] = system: DIO mice; test: Glucose tolerance test in DIO mice; assay type: in vivo; conditions: 70 mg/kg/day IP for 4 weeks, 1.5 g/kg glucose challenge
Procedure: as §1
Mice were fasted for 6 hours after compound treatment. Ten hours after compound administration, 1.5 g/kg of glucose was delivered intraperitoneally to mice. Tail vein serum samples were collected immediately before and 15, 30, 60 and 120 minutes after the glucose challenge. The glucose levels in serum samples were determined by a glucose meter.

[9] = molecular target: PDK3 (Homo sapiens, UniProt Q15120); test: Assay for inhibition of PDK activity, PDK3; assay type: biochemical; design: made in house; conditions: absence of E2/E3BP core (−)
Procedure: Recombinant human PDK2 was expressed and purified as a N terminal His6-tagged SUMO fusion protein with a tobacco-etch-virus protease (TEV) cleavage site in front of the N-terminal PDK2 sequence (26), and was used directly for the activity assay and binding affinity analyses. For crystallization, the protein was subjected to a TEV-protease digestion, and the untagged PDK2 protein was purified on a Superdex 200 column in 20 mM Tris-HCl (pH 8.0), 150 mM NaCl and 5 mM DTT. The purified protein was concentrated to 35-40 mg/ml and stored at −80° C. in small aliquots. Recombinant human PDK1, PDK3 and PDK4 were expressed and purified as described previously (26).
. The remaining steps were described previously (26). IC50 values were obtained by the curve fitting of inhibition isotherms using Prism 6 (GraphPad software, Inc.).

Chain of PDK4 (Q16654 whole entry, the tested form may be a part): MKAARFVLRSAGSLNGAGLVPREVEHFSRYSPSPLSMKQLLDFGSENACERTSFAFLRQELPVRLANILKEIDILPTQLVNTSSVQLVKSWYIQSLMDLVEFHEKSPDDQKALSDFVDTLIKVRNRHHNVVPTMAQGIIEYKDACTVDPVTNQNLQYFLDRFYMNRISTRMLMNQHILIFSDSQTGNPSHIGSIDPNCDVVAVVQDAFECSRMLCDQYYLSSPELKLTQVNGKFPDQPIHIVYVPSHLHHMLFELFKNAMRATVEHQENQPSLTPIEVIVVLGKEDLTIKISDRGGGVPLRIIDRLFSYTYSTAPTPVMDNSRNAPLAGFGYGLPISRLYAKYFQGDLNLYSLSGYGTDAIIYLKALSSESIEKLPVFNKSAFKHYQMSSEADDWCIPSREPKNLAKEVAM
Chain of PDK3 (Q15120 whole entry, the tested form may be a part): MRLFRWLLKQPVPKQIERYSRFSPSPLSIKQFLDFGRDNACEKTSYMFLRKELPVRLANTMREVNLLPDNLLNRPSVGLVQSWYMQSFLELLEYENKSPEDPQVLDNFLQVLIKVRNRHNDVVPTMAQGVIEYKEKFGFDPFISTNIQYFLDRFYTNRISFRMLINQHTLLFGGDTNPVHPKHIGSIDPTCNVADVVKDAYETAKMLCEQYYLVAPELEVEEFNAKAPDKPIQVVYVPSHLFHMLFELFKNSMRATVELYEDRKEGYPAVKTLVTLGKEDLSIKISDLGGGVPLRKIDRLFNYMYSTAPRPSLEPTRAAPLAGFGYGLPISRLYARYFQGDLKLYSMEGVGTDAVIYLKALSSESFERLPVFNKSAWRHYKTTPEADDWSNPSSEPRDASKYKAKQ

Question: What does the source list for `O=S(=O)(c1ccc(O)cc1O)N1Cc2cc(O)cc(O)c2C1` [PS10, 2-((2,4-dihydroxyphenyl)sulfonyl)isoindoline-4,6-diol]?
Answer: CL/F [1]: 0.741 mL/min; AUC(0-t) ([1]; mouse): 31800 ng·h/mL; Cmax ([1]; mouse): 32400 ng/mL; Tmax ([1]; mouse): 0.167 h; half-life ([1]; mouse, read-out: Terminal T1/2): 2.68 h; Vd/F ([1]; mouse, read-out: Vz/F): 0.172 L; half-life [2]: > 4 h; body weight vs vehicle-treated [3]: no significant differences; fat-mass vs vehicle-treated [3]: reduction; food intake vs vehicle-treated [3]: no significant differences; plasma cholesterol vs vehicle-treated [4]: significantly lower; plasma lactate vs vehicle-treated [4]: significantly lower; plasma triglycerides vs vehicle-treated [4]: significantly lower; IC50 ([5]; Table 1, inhibitor 31.6 nM to 1 mM, read-out: IC50, μM for PDK4): 0.76 µM; IC50 ([5]; absence of E2/E3BP core (−), read-out: IC50 for PDK4): 0.77 µM; IC50 ([6]; Table 1, inhibitor 31.6 nM to 1 mM, read-out: IC50, μM for PDK2): 0.8 µM; IC50 ([6]; absence of E2/E3BP core (−), read-out: IC50 for PDK2): 0.8 µM; IC50 [7]: 284 µM; plasma glucose level at 0 min [8]: 168 mg/dL; plasma glucose level at 30 min [8]: 312 mg/dL; plasma glucose level at 120 min [8]: 163 mg/dL; IC50 [9]: 21.3 µM
